Legend:
Details in all cases: 72 h
U2OS [1] = assay: relative viability EC50 (midpoint between 100% and the lowest measured viability); higher = less toxic
HepG2 [2] = assay: as above
Calu-3 [3] = assay: as above
U2OS [4] = assay: drug sensitivity score (DSS) for viability; higher = more toxic; extreme values may be limits of the assay
HepG2 [5] = assay: as above
Calu-3 [6] = assay: as above
Vero E6 [7] = assay: as above
Caco-2 [8] = assay: as above
U2OS [9] = assay: cell viability relative to DMSO; higher = less toxic
HepG2 [10] = assay: as above
Calu-3 [11] = assay: as above
Vero E6 [12] = assay: as above
Caco-2 [13] = assay: as above
Vero E6 [14] = assay: relative viability EC50 (midpoint between 100% and the lowest measured viability); higher = less toxic
Caco-2 [15] = assay: as above

Row | Structure (SMILES) | relative viability EC50 (U2OS [1]) [nM] | relative viability EC50 (HepG2 [2]) [nM] | relative viability EC50 (Calu-3 [3]) [nM] | drug sensitivity score (U2OS [4]) | drug sensitivity score (HepG2 [5]) | drug sensitivity score (Calu-3 [6]) | drug sensitivity score (Vero E6 [7]) | drug sensitivity score (Caco-2 [8]) | cell viability (U2OS [9]; 1 nM) [%] | cell viability (U2OS [9]; 10 nM) [%] | cell viability (U2OS [9]; 100 nM) [%] | cell viability (U2OS [9]; 1000 nM) [%] | cell viability (U2OS [9]; 10000 nM) [%] | cell viability (HepG2 [10]; 1 nM) [%] | cell viability (HepG2 [10]; 10 nM) [%] | cell viability (HepG2 [10]; 100 nM) [%] | cell viability (HepG2 [10]; 1000 nM) [%] | cell viability (HepG2 [10]; 10000 nM) [%] | cell viability (Calu-3 [11]; 1 nM) [%] | cell viability (Calu-3 [11]; 10 nM) [%] | cell viability (Calu-3 [11]; 100 nM) [%] | cell viability (Calu-3 [11]; 1000 nM) [%] | cell viability (Calu-3 [11]; 10000 nM) [%] | cell viability (Vero E6 [12]; 1 nM) [%] | cell viability (Vero E6 [12]; 10 nM) [%] | cell viability (Vero E6 [12]; 100 nM) [%] | cell viability (Vero E6 [12]; 1000 nM) [%] | cell viability (Vero E6 [12]; 10000 nM) [%] | cell viability (Caco-2 [13]; 1 nM) [%] | cell viability (Caco-2 [13]; 10 nM) [%] | cell viability (Caco-2 [13]; 100 nM) [%] | cell viability (Caco-2 [13]; 1000 nM) [%] | cell viability (Caco-2 [13]; 10000 nM) [%] | relative viability EC50 (Vero E6 [14]) [nM] | relative viability EC50 (Caco-2 [15]) [nM]
1 | N#Cc1cc2c(OCC(O)CN3CCN(C(c4ccccc4)c4ccccc4)CC3)cccc2[nH]1 (configuration not stated) | > 10000 | 3300 | > 10000 | 0 | 3.2 | 0 | 2.5 | 2.5 | 96.3 | 101 | 102 | 100 | 92.5 | 83.5 | 96.1 | 96.8 | 101 | 38.9 | 105 | 93.4 | 95.2 | 97.8 | 95.7 | 101 | 103 | 95.5 | 98.9 | 53.5 | 106 | 92.7 | 112 | 92.9 | 68.3 |  | 
2 | COc1ccc(C(=O)CC2(O)C(=O)Nc3c(Cl)ccc(Cl)c32)cc1 (configuration not stated) [YK-4-279] | 2500 | 2470 | > 10000 | 3.6 | 4.4 | 0.6 | 2.6 | 2.8 | 104 | 97.8 | 106 | 95.6 | 45.7 | 106 | 108 | 99.1 | 94.5 | 34.9 | 103 | 93.2 | 101 | 106 | 76.4 | 108 | 102 | 102 | 102 | 48.1 | 105 | 93.1 | 103 | 93.3 | 63.8 | 3340 | 
3 | COc1ccc(OC)c([C@@H](O)CNC(=O)CN)c1 [midodrine] | > 10000 | > 10000 | > 10000 | 0 | 0 | 0 | 0 |  | 99.1 | 104 | 100 | 106 | 105 | 109 | 102 | 118 | 99.1 | 109 | 89.1 | 98.7 | 95.7 | 95.6 | 98.3 | 102 | 97.8 | 106 | 95.8 | 108 |  |  |  |  |  | > 10000 | 
4 | Cc1cc(-c2nc3cc(F)ccc3s2)ccc1NC(=O)[C@@H](N)CCCCN [phortress] | > 10000 | 208 | > 10000 | 0 | 20 | 1.1 | 0 | 1.6 | 97.9 | 93.9 | 97.5 | 95.2 | 93.6 | 95.6 | 107 | 86.3 | 3.3 | 1.6 | 102 | 99.9 | 97.6 | 91.3 | 79.9 | 92.3 | 95.8 | 94.4 | 97.2 | 107 | 100 | 100 | 93.3 | 92.2 | 73.5 | > 10000 | 
5 | CN1CCN(C(c2ccccc2)c2ccc(Cl)cc2)CC1 (configuration not stated) [chlorcyclizine] | > 10000 | > 10000 | > 10000 | 0 | 0 | 0.1 | 0 | 0.9 | 93.8 | 103 | 99 | 106 | 88.8 | 97.6 | 90.4 | 95.8 | 91.7 | 87.9 | 102 | 103 | 96.4 | 98.3 | 88.1 | 105 | 97.3 | 103 | 101 | 92.6 | 107 | 104 | 79.4 | 105 | 71.7 | > 10000 | 
6 | CCOC(=O)Nc1cc(-c2ccc(C)c(NS(C)(=O)=O)c2)nn2c(C)nnc12 [bromosporine] | 1570 | 1020 | 624 | 7.6 | 9.4 | 7.9 | 10.4 | 4.8 | 96.2 | 99.2 | 91.5 | 79.2 | 18.5 | 101 | 98.9 | 102 | 60.8 | 19.5 | 96.8 | 88 | 80.4 | 76.3 | 37.8 | 95.7 | 101 | 94.7 | 55.5 | 6.3 | 95.5 | 101 | 104 | 81.3 | 55.8 | 1050 | 
7 | O=C(O)CCC(=O)c1ccc(-c2ccccc2)cc1 [fenbufen] |  |  |  | 0 | 0 | 0 | 0 |  |  |  |  |  |  |  |  |  |  |  |  |  |  |  |  |  |  |  |  |  |  |  |  |  |  |  | 
8 | S=C(NCc1ccc2c(c1)OCO2)N1CCN(c2ncnc3c2oc2ccccc23)CC1 [amuvatinib] |  | 1750 | > 10000 | 2.5 | 7.1 | 1.4 | 2.8 | 2.8 | 104 | 96.6 | 100 | 95 | 65.1 | 100 | 101 | 96.2 | 84 | 19 | 98.4 | 92.7 | 101 | 94.1 | 78.7 | 102 | 104 | 97.9 | 90.4 | 67.6 | 95.2 | 90.6 | 97.1 | 84.5 | 68.3 |  | 
9 | CC(=O)NC[C@H]1CN(c2ccc(N3CCOCC3)c(F)c2)C(=O)O1 [linezolid] |  |  |  | 0 | 0 |  | 0 |  |  |  |  |  |  |  |  |  |  |  |  |  |  |  |  |  |  |  |  |  |  |  |  |  |  |  | 
10 | O=C(Nc1ccc(OC(F)(F)F)cc1)c1sccc1NCc1ccnc2ccccc12 [OSI-930] | > 10000 |  | > 10000 | 0 | 2.5 | 0.4 |  | 1.7 | 97.8 | 101 | 99.8 | 104 | 92.2 | 103 | 98.5 | 91.3 | 89 | 67 | 91.6 | 111 | 93.6 | 112 | 78 |  |  |  |  |  | 107 | 102 | 94.1 | 97.9 | 69.3 |  | 
11 | COc1cc(OC2CCN(C)CC2)ccc1Nc1ncc2c(n1)n(C1CCCC1)c(=O)n2C [AZ3146] |  | 2740 |  | 3.5 | 4.5 | 3.8 | 3.2 | 1.5 | 100 | 104 | 101 | 92.2 | 57 | 106 | 97.9 | 102 | 96.1 | 28.8 | 95.5 | 87.4 | 93.6 | 84.4 | 62.4 | 111 | 104 | 103 | 99.4 | 41.8 | 103 | 101 | 104 | 95 | 76.8 | 3100 | > 10000
12 | O=C1c2ccccc2-c2c(NCCc3ccccc3)c(=O)[nH]c3cccc1c23 [BRD7389] | 795 | 525 |  | 6.7 | 10.1 | 2.8 | 7.7 | 5.3 | 97.2 | 102 | 95.5 | 68.5 | 44.5 | 98.8 | 101 | 99 | 45.7 | 34.8 | 97.4 | 100 | 97.6 | 83.1 | 72.5 | 102 | 102 | 101 | 69.1 | 33.5 | 103 | 102 | 97.3 | 71.6 | 61.9 | 1060 | 
13 | O=C(NC[C@H](O)CO)c1ccncc1Nc1ccc(I)cc1F | 2200 | 17.8 | 104 | 5.2 | 27.2 | 14.8 | 13.5 | 6.9 | 94.6 | 94.5 | 91.6 | 91.8 | 29.9 | 102 | 62.9 | 35 | 20.5 | 15.8 | 96.8 | 83.1 | 67.3 | 51 | 31.9 | 98.2 | 85.4 | 67.4 | 52 | 52.7 | 92.8 | 93.2 | 81.7 | 73 | 61.7 |  | 
14 | O=C(O)c1cc(-c2ccccc2)nc2ccccc12 [cinchophen] |  |  |  | 0 | 0.2 | 0 | 0 |  |  |  |  |  |  |  |  |  |  |  |  |  |  |  |  |  |  |  |  |  |  |  |  |  |  |  | 
15 | Cc1cc(-c2ccc(/N=N/c3ccc4c(S(=O)(=O)O)cc(S(=O)(=O)O)c(N)c4c3O)c(C)c2)ccc1/N=N/c1ccc2c(S(=O)(=O)O)cc(S(=O)(=O)O)c(N)c2c1O [evans-blue] |  |  |  | 4.2 | 4.9 | 1 | 4.2 | 2.8 | 99 | 98.6 | 95.1 | 86.3 | 53.7 | 102 | 89.6 | 84.2 | 86.5 | 52.6 | 92.8 | 101 | 105 | 102 | 71.9 | 103 | 106 | 94 | 91.6 | 47.9 | 96.7 | 88.9 | 104 | 97.9 | 51.1 | 1920 | 
16 | CC(C)(O)c1ccccc1CC[C@@H](SCC1(CC(=O)O)CC1)c1cccc(/C=C/c2ccc3ccc(Cl)cc3n2)c1 [montelukast] |  |  |  | 0 | 0 | 0 | 0 |  |  |  |  |  |  |  |  |  |  |  |  |  |  |  |  |  |  |  |  |  |  |  |  |  |  |  | 
17 | CCCCN(Cc1ccc(C(=O)NO)cc1)C(=O)Nc1ccccc1 [nexturastat-A] | 1950 | 1830 |  | 5.1 | 4.7 | 4.4 | 2.3 | 3.8 | 98.1 | 102 | 99.3 | 90.1 | 36.6 | 110 | 105 | 97.7 | 90 | 43.9 | 89.3 | 107 | 98.9 | 88 | 51.7 | 96.2 | 94.5 | 96.7 | 99.4 | 56.6 | 101 | 98.8 | 109 | 92.3 | 52.3 |  | 

Source: the supplement of paper PMC13380429
